Here are results for seven compounds from patent US7649007B2, “Oxazolidine derivatives as PR modulators” (Wyeth LLC, priority 2006, dated 2010).

Data set [1] addresses T1, progesterone receptor (alkaline phosphatase activity in T47D cells) (Homo sapiens, UniProt P06401).
T1 construct: determining a compound's effect on alkaline phosphatase activity in T47D cells; endogenous in cells; host or cells: T47D cells
T1 sequence (P06401 1-933): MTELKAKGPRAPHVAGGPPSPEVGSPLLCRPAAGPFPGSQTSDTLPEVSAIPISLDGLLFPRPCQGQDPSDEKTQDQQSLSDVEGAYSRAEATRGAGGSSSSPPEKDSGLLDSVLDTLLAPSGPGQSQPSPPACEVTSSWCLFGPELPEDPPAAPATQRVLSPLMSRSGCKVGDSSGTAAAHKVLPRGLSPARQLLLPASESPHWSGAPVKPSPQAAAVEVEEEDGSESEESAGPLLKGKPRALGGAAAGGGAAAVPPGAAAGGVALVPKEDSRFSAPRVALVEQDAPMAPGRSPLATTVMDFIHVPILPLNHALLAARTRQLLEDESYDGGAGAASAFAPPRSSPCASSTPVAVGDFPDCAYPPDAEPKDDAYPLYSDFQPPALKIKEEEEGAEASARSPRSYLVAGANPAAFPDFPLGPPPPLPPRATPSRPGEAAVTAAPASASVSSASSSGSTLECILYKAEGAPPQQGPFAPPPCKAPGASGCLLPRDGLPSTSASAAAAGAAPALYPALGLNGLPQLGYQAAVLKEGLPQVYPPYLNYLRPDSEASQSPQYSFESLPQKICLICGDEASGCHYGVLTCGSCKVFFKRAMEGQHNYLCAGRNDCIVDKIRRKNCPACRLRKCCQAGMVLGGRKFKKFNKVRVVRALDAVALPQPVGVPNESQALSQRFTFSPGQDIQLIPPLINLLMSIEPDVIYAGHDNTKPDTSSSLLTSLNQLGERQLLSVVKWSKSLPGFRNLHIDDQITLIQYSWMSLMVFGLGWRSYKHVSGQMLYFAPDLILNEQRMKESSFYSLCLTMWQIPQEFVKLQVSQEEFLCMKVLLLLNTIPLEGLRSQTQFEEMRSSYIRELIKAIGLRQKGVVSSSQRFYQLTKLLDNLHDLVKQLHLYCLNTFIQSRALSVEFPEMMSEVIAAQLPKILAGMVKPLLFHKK
Briefly: Effects of progestins and antiprogestins on alkaline phosphatase activity in T47D cells (antagonist mode). The data set is classed as cell-based. The settings on record: in the presence of 1 nM progesterone; for IC50: 24 h. The protocol:
(1) Effects of Progestins and Antiprogestins on Alkaline Phosphatase Activity in T47D Cells.
PURPOSE: To identify progestins or antiprogestins by determining a compound's effect on alkaline phosphatase activity in T47D cells.
Culture medium: • DMEM:F12 (1:1) (GIBCO, BRL) supplemented with 5% (v/v) charcoal stripped fetal bovine serum (not heat-inactivated), 100 U/mL penicillin, 100 μg/mL streptomycin, and 2 mM the GlutaMax™ reagent (GIBCO, BRL).
Alkaline phosphatase assay buffer: • I. 0.1M Tris-HCl, pH 9.8, containing 0.2% the Triton® X-100 reagent • II. 0.1M Tris-HCl, pH 9.8, containing 4 mM p-nitrophenyl phosphate (Sigma). B. Cell Culture and Treatment:
Frozen T47D cells were thawed in a 37° C. water bath and diluted to 280,000 cells/mL in culture medium. To each well in a 96-well plate (Falcon, Becton Dickinson Labware), 180 μL of diluted cell suspension was added.
Twenty μL of reference or test compounds diluted in the culture medium was then added to each well. When testing for progestin antagonist activity, reference antiprogestins or test compounds were added in the presence of 1 nM progesterone. The cells were incubated at 37° C. in a 5% CO2/humidified atmosphere for 24 h.
NOTE: For high throughput screening, one concentration of each compound was tested at 0.3 μg/mL. Based on an average molecular weight of 300 g/mol for the compounds in the library, the concentration was approximately 1 μM. Subsequently, active compounds were tested in dose response assays to determine EC50 and IC50. C. Alkaline Phosphatase Enzyme Assay:
At the end of treatment, the medium was removed from the plate. Fifty μL of assay buffer I was added to each well. The plates were shaken in a titer plate shaker for 15 min. Then 150 μL of assay buffer II was added to each well. Optical density measurements were taken at 5 min intervals for 30 min at a test wavelength of 405 nm.
For reference and test compounds, a dose response curve was generated for dose (X-axis) vs. the rate of enzyme reaction (slope) (Y-axis). Square root-transformed data was used for analysis of variance and nonlinear dose response curve fitting for both agonist and antagonist modes. Huber weighting was used to down-weight the effects of outliers. EC50 or IC50 values were calculated from the retransformed values. JMP software (SAS Institute, Inc.) was used for both one-way analysis of variance and non-linear dose response analysis in both single dose and dose response studies.
Progesterone and trimegestone were reference progestins and RU486 was the reference antiprogestin. All reference compounds were run in full dose response curves and the EC50 and IC50 values were calculated.

With `C[C@@H]1COC(=O)N1c1nc(-c2ccc(Br)cc2)cs1` [Example 1, (4R)-3-[4-(4-Bromophenyl)-1,3-thiazol-2-yl]-4-methyl-1,3-oxazolidin-2-one], the melting point fell in the range of 197 to 199 °C. With `CC(=O)/N=C1\OCC(C)(C)N1c1nc(-c2ccc(C#N)cc2)cs1` [Example 7, N-{(2Z)-3-[4-(4-Cyanophenyl)-1,3-thiazol-2-yl]-4,4-dimethyl-1,3-oxazolidin-2-ylidene}acetamide], the 50% inhibitory concentration (IC50) in data set [1] came to 10.8 nM. `CC1(C)COC(=O)N1c1nc(-c2cccc(C#N)c2)cs1` [Example 3, 3-[2-(4,4-dimethyl-2-oxo-1,3-oxazolidin-3-yl)-1,3-thiazol-4-yl]benzonitrile] had a melting point of 181 to 183 °C. `CCC1(CC)COC(=O)N1c1nc(-c2ccc(C#N)cc2)cs1` [Example 2, 4-[2-(4,4-Diethyl-2-oxo-1,3-oxazolidin-3-yl)-1,3-thiazol-4-yl]benzonitrile] gave a melting point of 145 to 147 °C. For the compound `CC1(C)CO/C(=N\C#N)N1c1nc(-c2ccc(C#N)cc2)cs1` [Example 5, {(2Z)-3-[4-(4-cyanophenyl)-1,3-thiazol-2-yl]-4,4-dimethyl-1,3-oxazolidin-2-ylidene}cyanamide], the IC50 in data set [1] was 64.4 nM.

The compound `CC1(C)COC(=N)N1c1nc(-c2ccc(C#N)cc2)cs1` [Example 4, 4-[2-(2-imino-4,4-dimethyl-1,3-oxazolidin-3-yl)-1,3-thiazol-4-yl]benzonitrile] gave a melting point of 158 to 161 °C. Further, the IC50 in data set [1] was 53.4 nM.

On to `CC1(C)CO/C(=N\S(C)(=O)=O)N1c1nc(-c2ccc(C#N)cc2)cs1` [Example 6, N-{(2Z)-3-[4-(4-Cyanophenyl)-1,3-thiazol-2-yl]-4,4-dimethyl-1,3-oxazolidin-2-ylidene}methanesulfonamide], for which the inhibition at 3 µM in data set [1] (at 3000 nM) worked out at 100%.

By melting point is commonly meant the temperature, or range, at which the solid turns liquid. The IC50 is the concentration needed to halve the response being measured. Broadly, the inhibition is the percentage by which the read-out fell short of the control.
